The values that follow come from patent US5670527A, “Pyridyl imidazole compounds and compositions” (SmithKline Beecham Corporation, priority 1995, dated 1997).

The test system of one assay is human PGHS-2 protein expression in LPS stimulated human monocytes. In words: Prostoglandin endoperoxide synthase-2 (PGHS-2) assay. It counts as cell-based. Conditions: rank order potency similar to that for inhibiting cytokine production. As for the experimental part: The followiong assay describes a method for determining the inhibitory effects of compounds of Formula (I) on human PGHS-2 protein expression in LPS stimulated human monocytes
Human peripheal blood monocytes were isolated from buffy coats by centrifugation through Ficoll and Percoll gradients. Cells were seeded at 2×10^6 /well in 24 well plates and allowed to adhere for 1 hour in RPMI supplemented with 1% human AB serum, 20 mM L-glutamine, Penicillin-Streptomycin and 10 mM HEPES. Compounds were added at various concentrations and incubated at 37° C. for 10 minutes. LPS was added at 50 ng/well (to induce enzyme expression) and incubated overnight at 37° C. The supernatant was removed and cells washed once in cold PBS. The cells were lysed in 100 μl of cold lysis buffer(50 mM Tris/HCl pH 7.5, 150 mM NaCl, 1% NP40, 0.5% sodium deoxycholate, 0.1% SDS, 300 ug/ml DNAse, 0.1% TRITON X-100, 1 mM PMSF, 1 mM leupeptin, 1 mM pepstatin). The lysate was centrifuged (10;000×g for 10 min. at 4° C.) to remove debris and the soluble fraction was subjected to SDS PAGE. analysis (12% gel). Protein separated on the gel were transferred onto nitrocellulose membrane by electrophoretic means for 2 hours at 60 volts. The membrane was pretreated for one hour in PBS/0.1% Tween 20 with 5% non-fat dry milk. After washing 3 times in PBS/Tween buffer, the membrane was incubated with a 1:2000 dilution of a monospecific antiserum to PGHS-2 or a 1:1000 dilution of an antiserum to PGHs-1 in PBS/Tween with 1% BSA for one hour with continuous shaking. […] The membrane was then washed 3× in PBS/Tween and the ECL immunodetection system (Amersham) was used to detect the level of expression of prostaglandin endoperoxide synthases-2.
In the case of `C[C@@H]1C[C@H]2[C@@H]3CCC4=CC(=O)C=C[C@]4(C)[C@@]3(F)[C@@H](O)C[C@]2(C)[C@@]1(O)C(=O)CO` [Dexamethasone], the “inhibition of LPS induced PGHS-2 protein expression” value (“inhibition” for short) is “active”. Regarding `Fc1ccc(-c2ncn(CCCN3CCOCC3)c2-c2ccncc2)cc1` [Example 1, 1-[3-(4-Morpholinyl)propyl]-4-(4-fluorophenyl)-5-(4-pyridyl)imidazole], the “inhibition” value was “active”.

Regarding `Fc1ccc(-c2nc3n(c2-c2ccncc2)CCS3)cc1` [6-(4-Fluorophenyl)-2,3-dihydro-5-(4-pyridinyl)imidazo [2,1-b]thiazole], the “inhibition” value is “active”.

Still in this assay, the particulars now being: up to 10 uM.
In the case of `CC(Cc1ccc(O)c(O)c1)C(C)Cc1ccc(O)c(O)c1` (stereo not shown) [NDGA], the “inhibition” value was “inactive”.

For the compound `COc1ccc(C2CNC(=O)C2)cc1OC1CCCC1` (stereo not shown) [rolipram], the “inhibition” value is “inactive”. On the same count and under the same terms, the value for `C[S+]([O-])c1ccc(-c2nc3n(c2-c2ccncc2)CCC3)cc1` (stereo not shown) [2-(4-Methylsulfinylphenyl)-3-(4-pyridyl)-6-7-dihydro-(5H)-pyrrolo[1,2-a]imidazole] was “inactive”. Still for that read-out and setting: the value for `O=C1CCN(c2ccccc2)N1` [phenidone] was “inactive”.
